Test results published in patent US10738028B2, “Spiro three-membered ring, spiro five-membered ring peptide deformylase inhibitor and use thereof in antibacteria and anti-tumor” (priority 2016, dated 2020).

Experiments:
Format in all cases: cell-based
[1] = test system: BEL-7402 liver cancer cell line; assay: CCK-8 proliferation inhibition; details: concentration of 30 μM, 72 hours, 30 µM
Source text: (§1) 2. The present invention adopts the CCK-8 method to determine the proliferation inhibition effect of the spiro three-membered ring, spiro five-membered ring peptide deformylase inhibitor as described in Examples 1-80 against colorectal cancer cells, lung cancer cells, gastric cancer cells, liver cancer cells, and the like. […] The compound having the best activity synthesized in Example 64 was further tested for its inhibitory activity against other tumor cells including T cell leukemia, acute myeloid leukemia, cervical cancer, breast cancer, prostate cancer and osteosarcoma, and the like (see Table 7).
(§2) (1) HCT-116 colorectal cancer cell line, A549 lung cancer cell line, MGC-803 gastric cancer cell line, BEL-7402 liver cancer cell line, Jurkat T cell leukemia cell line, HL60 acute myeloid leukemia cell line, Hela cervical cancer cell line, MCF-7 breast cancer cell line, PC3 prostate cancer cell line and SAOS-2 osteosarcoma cell line were made into single cell suspension, 180 μL of which was inoculated into 96-well culture plate, which was cultured overnight in CO2 incubator (37° C., 5% CO2, 95% air).
(§3) (2) Each of the spiro three-membered ring, spiro five membered ring peptide deformylase inhibitors was dissolved in DMSO, and was further formulated into drug solution with required different final concentration using corresponding cell culture medium. The drug solutions were added to the above cells respectively (20 μL/well), with the control group added with 1‰ DMSO, and cultured in a CO2 incubator for 72 hours.
(§4) (3) After incubation for 72 hours, the culture solution was decanted, and 100 μL of 1:10 diluted CCK-8 solution was added.
(§5) Wherein, in step (1), the concentration of the single cell suspension was 2000 cells/well.
(§6) Wherein, in step (2), HCT-116 cells were cultured in McCoy's 5A medium (containing 10% newborn bovine serum, 1% double antibody); A549 and PC3 cells were cultured in F12 medium (containing 10% newborn bovine serum, 1% double antibody); MGC-803, BEL-7402, SAOS-2, Jurkat and HL60 cells were cultured in 1640 medium (containing 10% newborn bovine serum, 1% double antibody); and MCF-7 and Hela cells were cultured in DMEM high glucose medium (containing 10% newborn bovine serum, 1% double antibody).

[2] = test system: A549 lung cancer cell line; assay: CCK-8 proliferation inhibition; details: Homo sapiens, A549, 72 h, concentration of 30 μM
Source text: as §1, §2, §3, §4, §5, §6

[3] = test system: MGC-803 gastric cancer cell line; assay: CCK-8 proliferation inhibition; details: concentration of 30 μM
Source text: as §1, §2, §3, §4, §5, §6

[4] = test system: HCT-116 colorectal cancer cell line; assay: CCK-8 proliferation inhibition; details: concentration of 30 μM; 72 hours; CCK-8; 30 µM
Summary of the method: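 Cells seeded at 2000 cells/well, cultured overnight at 37 °C, 5% CO2, then exposed to compound (DMSO; control 1‰ DMSO) for 72 h in McCoy's 5A with 10% newborn bovine serum. Viability read with 1:10 diluted CCK-8.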

[5] = test system: methicillin-sensitive Staphylococcus aureus (MSSA); assay: MIC, two-fold agar dilution (CLSI), clinical isolates
Summary of the method: (§7)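 MIC values come from two-fold agar dilution run per CLSI antimicrobial susceptibility testing procedure.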

[6] = test system: Enterococcus faecalis (EFA); assay: as above
Summary of the method: as §7

[7] = test system: methicillin-sensitive Staphylococcus epidermidis (MSSE); assay: as above
Summary of the method: as §7

[8] = test system: Escherichia coli (including ESBLs, non-ESBLs); assay: as above
Summary of the method: as §7

[9] = test system: Moraxella catarrhalis (BCA); assay: as above
Summary of the method: as §7

[10] = test system: methicillin-resistant Staphylococcus epidermidis (MRSE); assay: as above
Summary of the method: as §7

[11] = test system: Streptococcus pneoumoniae (SPN); assay: as above
Summary of the method: as §7

[12] = test system: Enterococcus faecium (EFM); assay: as above
Summary of the method: as §7

[13] = test system: methicillin-resistant Staphylococcus aureus (MRSA); assay: as above
Summary of the method: as §7

O=CN(O)C[C@@H](CC1CCCC1)C(=O)N1CC2(CC2)C[C@H]1C(=O)Nc1nccs1 (stereo in doubt) [Example 40, (S)-5-((S)-3-cyclopentyl-2-((N-hydroxyformamido)methyl)propionyl)-N-(thiazol-2-yl)-5-spiro[2.4]heptane-6-carboxamide]
Inhibition of proliferation, Liver cancer BEL-7402 [1]: 73% | inhibition at 30 µM [2]: 30% | inhibition at 30 µM ([3]; Homo sapiens, MGC-803, 72 h): > 50% | Inhibition of proliferation, Gastric cancer MGC-803 ([3]; 72 hours, 30 µM): 63% | HCT116 inhibition rate/% [4]: 78% | Anti-bacterial activity (MIC), strain MSSA 15-3 ([5]; clinical isolate MSSA 15-3): 0.5 µg/mL | Anti-bacterial activity (MIC), strain MSSA 15-4 ([5]; clinical isolate MSSA 15-4): 0.5 µg/mL | Anti-bacterial activity (MIC), strain MSSA 15-5 ([5]; clinical isolate MSSA 15-5): 0.5 µg/mL | Anti-bacterial activity (MIC), strain MSSA 15-6 ([5]; clinical isolate MSSA 15-6): 0.5 µg/mL | Anti-bacterial activity (MIC), strain EFA 15-1 ([6]; clinical isolate EFA 15-1): 4 µg/mL | Anti-bacterial activity (MIC), strain EFA 15-2 ([6]; clinical isolate EFA 15-2): 4 µg/mL | Anti-bacterial activity (MIC), strain EFA 15-3 ([6]; clinical isolate EFA 15-3): 4 µg/mL | Anti-bacterial activity (MIC), strain EFA 15-4 ([6]; clinical isolate EFA 15-4): 4 µg/mL | Anti-bacterial activity (MIC), strain EFA 15-5 ([6]; clinical isolate EFA 15-5): 4 µg/mL | Anti-bacterial activity (MIC), strain EFA 15-6 ([6]; clinical isolate EFA 15-6): 4 µg/mL | Anti-bacterial activity (MIC), strain EFA 15-9 ([6]; clinical isolate EFA 15-9): 4 µg/mL | Anti-bacterial activity (MIC), strain MSSE 15-3 ([7]; clinical isolate MSSE 15-3): 0.5 µg/mL | Anti-bacterial activity (MIC), strain MSSE 15-4 ([7]; clinical isolate MSSE 15-4): 0.5 µg/mL | Anti-bacterial activity (MIC), strain MSSE 15-5 ([7]; clinical isolate MSSE 15-5): 0.25 µg/mL | Anti-bacterial activity (MIC), strain MSSE 15-6 ([7]; clinical isolate MSSE 15-6): 0.25 µg/mL | Anti-bacterial activity (MIC), strain ECO+ 15-1 ([8]; clinical isolate ECO+ 15-1): 32 µg/mL | Anti-bacterial activity (MIC), strain ECO+ 15-2 ([8]; clinical isolate ECO+ 15-2): 32 µg/mL | Anti-bacterial activity (MIC), strain ECO+ 15-3 ([8]; clinical isolate ECO+ 15-3): 32 µg/mL | Anti-bacterial activity (MIC), strain ECO+ 15-4 ([8]; clinical isolate ECO+ 15-4): 32 µg/mL | Anti-bacterial activity (MIC), strain ECO− 15-1 ([8]; clinical isolate ECO− 15-1): 32 µg/mL | Anti-bacterial activity (MIC), strain ECO− 15-2 ([8]; clinical isolate ECO− 15-2): 32 µg/mL | Anti-bacterial activity (MIC), strain ECO− 15-3 ([8]; clinical isolate ECO− 15-3): 32 µg/mL | Anti-bacterial activity (MIC), strain ECO− 15-4 ([8]; clinical isolate ECO− 15-4): 32 µg/mL | Anti-bacterial activity (MIC), strain BCA 14-1 ([9]; clinical isolate BCA 14-1): 1 µg/mL | Anti-bacterial activity (MIC), strain BCA 14-4 ([9]; clinical isolate BCA 14-4): 1 µg/mL | Anti-bacterial activity (MIC), strain BCA 14-5 ([9]; clinical isolate BCA 14-5): 0.5 µg/mL | Anti-bacterial activity (MIC), strain BCA 14-6 ([9]; clinical isolate BCA 14-6): 0.5 µg/mL | Anti-bacterial activity (MIC), strain BCA 14-7 ([9]; clinical isolate BCA 14-7): 0.25 µg/mL | Anti-bacterial activity (MIC), strain BCA 14-8 ([9]; clinical isolate BCA 14-8): 0.5 µg/mL | Anti-bacterial activity (MIC), strain BCA 14-10 ([9]; clinical isolate BCA 14-10): 0.2 µg/mL | Anti-bacterial activity (MIC), strain MRSE 15-1 ([10]; clinical isolate MRSE 15-1): 0.5 µg/mL | Anti-bacterial activity (MIC), strain MRSE 15-2 ([10]; clinical isolate MRSE 15-2): 0.5 µg/mL | Anti-bacterial activity (MIC), strain MRSE 15-3 ([10]; clinical isolate MRSE 15-3): 0.5 µg/mL | Anti-bacterial activity (MIC), strain MRSE 15-7 ([10]; clinical isolate MRSE 15-7): 0.5 µg/mL | Anti-bacterial activity (MIC), strain SPN 16-2 ([11]; clinical isolate SPN 16-2): 0.25 µg/mL | Anti-bacterial activity (MIC), strain SPN 16-4 ([11]; clinical isolate SPN 16-4): 4 µg/mL | Anti-bacterial activity (MIC), strain EFM 15-1 ([12]; clinical isolate EFM 15-1): 1 µg/mL | Anti-bacterial activity (MIC), strain EFM 15-2 ([12]; clinical isolate EFM 15-2): 1 µg/mL | Anti-bacterial activity (MIC), strain EFM 15-3 ([12]; clinical isolate EFM 15-3): 0.25 µg/mL | Anti-bacterial activity (MIC), strain EFM 15-4 ([12]; clinical isolate EFM 15-4): 1 µg/mL | Anti-bacterial activity (MIC), strain EFM 15-5 ([12]; clinical isolate EFM 15-5): 1 µg/mL | Anti-bacterial activity (MIC), strain EFM 15-6 ([12]; clinical isolate EFM 15-6): 1 µg/mL | Anti-bacterial activity (MIC), strain MRSA 15-1 ([13]; clinical isolate MRSA 15-1): 0.5 µg/mL | Anti-bacterial activity (MIC), strain MRSA 15-2 ([13]; clinical isolate MRSA 15-2): 0.5 µg/mL | Anti-bacterial activity (MIC), strain MRSA 15-3 ([13]; clinical isolate MRSA 15-3): 0.25 µg/mL | Anti-bacterial activity (MIC), strain MRSA 15-4 ([13]; clinical isolate MRSA 15-4): 0.25 µg/mL
